Test results from PubChem BioAssay AID1919009 (Molecular Pharmacology Branch, DTP, NCI, 2023).
pIC50: −log10 of the molar value.

System: K24384-001-R-PDC complex spheroid growth
Experiment: Anticancer human tumor K24384-001-R-PDC patient-derived pancreatic adenocarcinoma cell line growth inhibition [AhR]
Details: for pIC50: curve of first compound; for viability, T/C: stronger effect = lower value
Method in brief: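 Agents were dosed in half-log steps down from roughly clinical Cmax, or from 10 microM where Cmax was unknown, alone and with AhR antagonists. Read-out: percent test/control growth of tumor spheroids containing HUVEC and MSC stromal cells.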

[1] = second compound 0.1 µM, first compound 0.0316 µM
[2] = second compound 0.1 µM, first compound 0.1 µM
[3] = second compound 0.1 µM, first compound 0.316 µM
[4] = second compound 0.1 µM, first compound 1 µM
[5] = second compound 0.1 µM, first compound 3.16 µM
[6] = second compound 0.1 µM, first compound 10 µM
[7] = second compound 0.316 µM, first compound 0.0316 µM
[8] = second compound 0.316 µM, first compound 0.1 µM
[9] = second compound 0.316 µM, first compound 0.316 µM
[10] = second compound 0.316 µM, first compound 1 µM
[11] = second compound 0.316 µM, first compound 3.16 µM
[12] = second compound 0.316 µM, first compound 10 µM
[13] = second compound 1 µM, first compound 0.0316 µM
[14] = second compound 1 µM, first compound 0.1 µM
[15] = second compound 1 µM, first compound 0.316 µM
[16] = second compound 1 µM, first compound 1 µM
[17] = second compound 1 µM, first compound 3.16 µM
[18] = second compound 1 µM, first compound 10 µM
[19] = second compound 3.16 µM, first compound 0.0316 µM
[20] = second compound 3.16 µM, first compound 0.1 µM
[21] = second compound 3.16 µM, first compound 0.316 µM
[22] = second compound 3.16 µM, first compound 1 µM
[23] = second compound 3.16 µM, first compound 3.16 µM
[24] = second compound 3.16 µM, first compound 10 µM
[25] = second compound 10 µM, first compound 0.0316 µM
[26] = second compound 10 µM, first compound 0.1 µM
[27] = second compound 10 µM, first compound 0.316 µM
[28] = second compound 10 µM, first compound 1 µM
[29] = second compound 10 µM, first compound 3.16 µM
[30] = second compound 10 µM, first compound 10 µM
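Throughout, for viability, T/C: percent of DMSO vehicle-treated spheroid viability set as 100%.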

Structure (SMILES)	pIC50 (second compound 0.1 µM)	pIC50 (second compound 0.316 µM)	pIC50 (second compound 1 µM)	pIC50 (second compound 3.16 µM)	pIC50 (second compound 10 µM)	viability, T/C [1] [%]	viability, T/C [2] [%]	viability, T/C [3] [%]	viability, T/C [4] [%]	viability, T/C [5] [%]	viability, T/C [6] [%]	viability, T/C [7] [%]	viability, T/C [8] [%]	viability, T/C [9] [%]	viability, T/C [10] [%]	viability, T/C [11] [%]	viability, T/C [12] [%]	viability, T/C [13] [%]	viability, T/C [14] [%]	viability, T/C [15] [%]	also measured
Nc1ccccc1NC(=O)c1ccc(CNC(=O)OCc2cccnc2)cc1 + Cc1ccccc1N=Nc1ccc(NC(=O)c2ccnn2C)c(C)c1	5.74	5.77	5.88	5.85	5.82	100	93.9	83.2	63.6	37	7.04	105	104	78.2	68.7	32.3	6.55	95.1	94.7	67.9	viability, T/C [16]: 60.2%; viability, T/C [17]: 30.4%; viability, T/C [18]: 5.37%; viability, T/C [19]: 85.9%; viability, T/C [20]: 78.3%; viability, T/C [21]: 80.6%; viability, T/C [22]: 52.9%; viability, T/C [23]: 34%; viability, T/C [24]: 4.36%; viability, T/C [25]: 81.8%; viability, T/C [26]: 84.1%; viability, T/C [27]: 80.4%; viability, T/C [28]: 54.5%; viability, T/C [29]: 35.2%; viability, T/C [30]: 6.31%
O=C(C=Cc1cccc(S(=O)(=O)Nc2ccccc2)c1)NO + Cc1ccccc1N=Nc1ccc(NC(=O)c2ccnn2C)c(C)c1	5.63	5.61	5.65	5.64	5.59	137	128	126	92.2	35.2	6.57	135	144	121	107	32.6	6.91	136	135	126	viability, T/C [16]: 87%; viability, T/C [17]: 35.1%; viability, T/C [18]: 6.47%; viability, T/C [19]: 102%; viability, T/C [20]: 127%; viability, T/C [21]: 123%; viability, T/C [22]: 86.5%; viability, T/C [23]: 35.9%; viability, T/C [24]: 5.9%; viability, T/C [25]: 128%; viability, T/C [26]: 128%; viability, T/C [27]: 115%; viability, T/C [28]: 89%; viability, T/C [29]: 41.1%; viability, T/C [30]: 7.02%
O=C(c1cc(Cc2n[nH]c(=O)c3ccccc23)ccc1F)N1CCN(C(=O)C2CC2)CC1 + Cc1ccccc1N=Nc1ccc(NC(=O)c2ccnn2C)c(C)c1	< 5.00	< 5.00	< 5.00	< 5.00	< 5.00	86.1	94.5	99.4	83.3	75.8	79.2	99.9	97.2	79.4	86.2	85.8	58	89.9	109	77.4	viability, T/C [16]: 81.1%; viability, T/C [17]: 66.2%; viability, T/C [18]: 63.2%; viability, T/C [19]: 75.9%; viability, T/C [20]: 80.6%; viability, T/C [21]: 83.2%; viability, T/C [22]: 72.4%; viability, T/C [23]: 60.3%; viability, T/C [24]: 51.6%; viability, T/C [25]: 101%; viability, T/C [26]: 84.1%; viability, T/C [27]: 95.1%; viability, T/C [28]: 72.9%; viability, T/C [29]: 65.2%; viability, T/C [30]: 65.8%
